Data set [1] in a line: Capture and release of target molecule by cross-linked polymer (HDI-linked cyclodextrin), slurry protocol. In kind it is physicochemical. Conditions: Example 9; 2 mg/mL in 1:1 ethanol:water, 10:1.
Experimental: A mass of CBD was dissolved in ethanol to form a stock solution. A reference sample of the stock solution was diluted with ethanol to obtain a target CBD or other target molecule concentration for a reference measurement. A reaction sample was taken from the remaining stock solution. A cross-linked polysaccharide was combined with the reaction sample in a ratio relative to the CBD or other target molecule concentration present in the reaction sample (by mass) as specified in Examples. The cross-linked polymer is HDI-linked cyclodextrin prepared with a ratio of 8:1 HDI to cyclodextrin.
Water is combined with the reaction sample until the reaction sample reaches a target CBD or other target molecule concentration, and a target ethanol to water ratio. The reaction mixture including the water is filtered at a cutoff size of between 75 μm to 4,000 μm aperture size, or exposed to a magnetic field with a neodymium magnet through the wall of a flask, to retrieve the cross-linked polymer bound with CBD or other target molecule concentration. Once retrieved, the cross-linked polymer is flushed with a dissociation fluid for dissolving the target molecule.
Ten milligrams of CBD were dissolved in a 10 mL mixture of 1:1 ethanol to water to produce a reaction mixture with a CBD concentration of 1 mg/mL. A 1 mL aliquot was then taken from the reaction mixture as a reference sample (t=0). […]
A short description of data set [2]: Dissolution of CBD in ethanol:water mixtures. In kind it is physicochemical. As for the experimental part: The protocol of Example 9 was followed with the 60 mg initially dissolved in ethanol only. […] The remaining five portions were diluted to an ethanol to water ratio of 7:3, 6:4, 5:5, 4:6 or 3:7. The portions were then filtered to retrieve the cross-linked polymer.
At 50:50 EtOH:H2O, CBD dissolves provided that EtOH is added first then H2O. At 45:56 EtOH:H2O, the 2 mg/mL CBD solution is cloudy. […] Slowly adding H2O to the CBD, EtOH, polymer mixture results in very high capture of 98% at a 3:7 EtOH:H2O.
The portions were filtered by pipette filtration to retrieve the cross-linked polymer. The cross-linked polymer was then flushed with DMSO. […] Ten percent of the CBD is not in solution when CBD in 3:7 EtOH:H2O is used. The calculated cyclodextrin capacity within the polymer is 8:1 polymer:CBD.

`C=C(C)[C@@H]1CCC(C)=C[C@H]1c1c(O)cc(CCCCC)cc1O` [CBD, cannabidiol]: in data set [1], the “time to capture plateau” value was “about 5 minutes”. Moreover, the “dissolution of CBD” value in data set [2] (6 mg/mL in 1:1 EtOH:H2O, sonication and heating) is “did not dissolve”; in data set [2] (40:60 EtOH:H2O, 2 mg/mL), “not fully dissolved”; in data set [2] (45:56 EtOH:H2O, 2 mg/mL), “cloudy”; in data set [2] (50:50 EtOH:H2O, 2 mg/mL, EtOH added first then H2O), “dissolves”. Moreover, the “CBD not in solution” value in data set [2] (CBD in 3:7 EtOH:H2O, Example 17) is “Ten”.

The values are drawn from patent US20240150270A1, “METHOD FOR SELECTIVE RECOVERY OF LIPOPHILIC COMPOUNDS” (priority 2021, published 2024).
